In publication PMC9286277, “Enzymatic measurement of short-chain fatty acids and application in periodontal disease diagnosis” (PLoS ONE, 2022):

Assays:
Details in all cases: ATP, Mg2+; 0.1 M Tris-HCl pH 7.5; 37°C
[1] = biological target: T1, His-tagged BK (butyrate kinase; ToBKIII) (Thermosediminibacter oceani, UniProt D9S2G7); assay: coupled ADP-hexokinase/G6PDH NADPH assay; assay type: biochemical
T1 construct: gene buk; entire gene (about 1,100 bp, about 360 residues) NdeI/HindIII in pET21a(+), E. coli BL21(DE3), Ni column; C-terminal vector His tag; sense primer encodes N-terminus MTFYGILA; antisense primer encodes C-terminus EKPKEYL before HindIII site (KL)
T1 sequence (D9S2G7 1-357): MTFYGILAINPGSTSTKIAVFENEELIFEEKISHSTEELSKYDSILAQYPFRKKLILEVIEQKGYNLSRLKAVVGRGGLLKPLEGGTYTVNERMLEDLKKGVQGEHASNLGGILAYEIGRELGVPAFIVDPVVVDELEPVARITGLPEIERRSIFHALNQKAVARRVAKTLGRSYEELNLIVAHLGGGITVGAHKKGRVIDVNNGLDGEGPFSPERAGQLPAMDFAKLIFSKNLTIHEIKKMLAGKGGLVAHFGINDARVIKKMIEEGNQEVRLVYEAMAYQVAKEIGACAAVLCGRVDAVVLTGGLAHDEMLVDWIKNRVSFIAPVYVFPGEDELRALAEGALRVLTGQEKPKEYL
Source text: coupled ADP-hexokinase/G6PDH NADPH assay on His-tagged BK (butyrate kinase; ToBKIII)

[2] = system: T2, PK (propionate kinase)
T2 construct: gene tdcD
Source text: coupled ADP-hexokinase/G6PDH NADPH assay on PK (propionate kinase)

[3] = biological target: T3, AK (acetate kinase) (Escherichia coli, UniProt P0A6A3)
T3 construct: gene ackA
Source text: coupled ADP-hexokinase/G6PDH NADPH assay on AK (acetate kinase)

T3 sequence (P0A6A3 whole entry): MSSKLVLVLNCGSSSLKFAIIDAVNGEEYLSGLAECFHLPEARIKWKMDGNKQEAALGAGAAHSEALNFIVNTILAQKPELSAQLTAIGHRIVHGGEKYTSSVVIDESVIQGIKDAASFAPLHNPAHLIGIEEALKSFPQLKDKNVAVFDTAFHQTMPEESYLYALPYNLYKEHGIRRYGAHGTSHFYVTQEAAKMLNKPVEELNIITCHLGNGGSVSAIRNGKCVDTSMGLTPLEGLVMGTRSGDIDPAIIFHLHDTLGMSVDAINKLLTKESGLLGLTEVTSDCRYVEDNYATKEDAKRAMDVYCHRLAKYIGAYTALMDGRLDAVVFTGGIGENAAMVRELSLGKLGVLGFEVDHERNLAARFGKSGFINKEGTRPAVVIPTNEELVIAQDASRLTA

Row | SMILES | BK / Km [1] | PK / Km [2] | AK / Km [3]
1 | CC(=O)O [C2, acetic acid] |  | 13.2 mmol | 9.1 mmol
2 | CCCC(=O)O [C4, butyric acid] | 2.2 mmol | 280 mmol | 
3 | CCCCC(=O)O [C5, valeric acid] | 3.3 mmol |  | 
4 | CCC(=O)O [C3, propionic acid] | 5.1 mmol | 1.8 mmol | 
5 | CCCCCC(=O)O [C6, caproic acid] | 8.7 mmol |  | 

Now from value to compound:

Row | BK / Km [1] | PK / Km [2] | AK / Km [3] | SMILES
6 | 3.2 mmol |  |  | CC(C)C(=O)O [IC4, isobutyric acid]
7 | 2.1 mmol |  |  | CC(C)CC(=O)O [IC5, isovaleric acid]
